Laboratory results: patent US11191762B2, “Alkyl substituted triazole compounds as agonists of the APJ Receptor” (priority 2016, dated 2021)

Molecular target: human APJ receptor (Homo sapiens (Human), UniProt P35414)
Test: biochemical
Assay type: biochemical
Conditions: [35S]GTPγS binding, membranes from CHO cells stably expressing human APJ receptor; read-out: Activity hAPJ SPA EC50 IP
Experimental: The human APJ receptor was cloned by polymerase chain reaction and the gene encoding the receptor was subcloned in pFLAG-CMV™-3 expression vector (Sigma, Saint Louis, Mo. USA) in-house at Amgen. A GTPγS binding assay was performed on membranes prepared from CHO cells stably expressing human APJ receptor. The optimum experimental conditions for the concentrations of GDP, MgCl2, and NaCl in the assay buffer were initially determined. The assay was performed in 9 μL assay buffer [20 mM HEPES, pH 7.5, 5 mM MgCl2, 100 mM NaCl and 0.1% (w/v) BSA], 1 μL of diluted test compound (starting with 0.75 mM, 2-fold serial dilution with DMSO, total 22 points), 10 μL of 18 µM GDP (final concentration of 3 μM GDP), 20 μL of […] membrane protein expressing human APJ receptor captured with WGA PS beads (final concentration of 5 μg per well), and 20 μL of 0.3 nM [^35S]GTPγS (final concentration is 0.1 nM [^35S]GTPγS)(Perkin Elmer Life and Analytical Sciences, Waltham USA).

human APJ receptor, sequence (P35414 whole entry): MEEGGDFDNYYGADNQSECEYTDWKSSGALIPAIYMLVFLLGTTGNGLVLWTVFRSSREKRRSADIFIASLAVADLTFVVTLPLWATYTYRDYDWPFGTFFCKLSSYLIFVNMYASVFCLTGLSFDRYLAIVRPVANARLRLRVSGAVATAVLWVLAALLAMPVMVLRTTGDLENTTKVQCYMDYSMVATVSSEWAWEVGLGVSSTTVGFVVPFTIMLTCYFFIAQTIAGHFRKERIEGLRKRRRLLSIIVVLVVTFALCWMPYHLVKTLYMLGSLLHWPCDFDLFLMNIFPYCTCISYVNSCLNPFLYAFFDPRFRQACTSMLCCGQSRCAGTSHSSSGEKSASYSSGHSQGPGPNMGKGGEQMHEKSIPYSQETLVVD

Q: With `COc1cccc(OC)c1-n1c(C)nnc1NS(=O)(=O)[C@@H](C)[C@H](OC)c1ncc(C)cn1` [Example 26.0, (1R,2S)-N-(4-(2,6-dimethoxyphenyl)-5-methyl-4H-1,2,4-triazol-3-yl)-1-methoxy-1-(5-methylpyrimidin-2-yl)propane-2-sulfonamide] as the molecule, how does the EC50 read?
A: The EC50 was 120 nM.

Q: Which EC50 does the source give for `COc1ccc(Cc2nnc(NS(=O)(=O)[C@@H](C)[C@H](OC)c3ncc(C)cn3)n2-c2c(OC)cccc2OC)cc1` [Example 49.0] here?
A: Its EC50 is 170 nM.

Q: Which EC50 does the source give for `CC[C@@H](OC)c1nnc(NS(=O)(=O)[C@@H](C)[C@H](C)c2ncc(Cl)cn2)n1-c1c(OC)ncnc1OC` (single isomer, unassigned) [Example 6.0, (2S,3R)-3-(5-chloro-2-pyrimidinyl)-N-(4-(4,6-dimethoxy-5-pyrimidinyl)-5-((1R)-1-methoxypropyl)-4H-1,2,4-triazol-3-yl)-2-butanesulfonamide or (2S,3R)-3-(5-chloro-2-pyrimidinyl)-N-(4-(4,6-dimethoxy-5-pyrimidinyl)-5-((1S)-1-methoxypropyl)-4H-1,2,4-triazol-3-yl)-2-butanesulfonamide] here?
A: The EC50 was 740 nM.

Q: Which EC50 does the source give for `COCc1nnc(NS(=O)(=O)[C@@H](C)[C@H](OC)c2ncc(Cl)cn2)n1C1(COC)CC1` [Example 145.0] here?
A: Its EC50 is 240 nM.

Q: With `CCCCc1nnc(NS(=O)(=O)[C@@H](C)[C@H](C)c2ncc(Cl)cn2)n1-c1c(OC)cccc1OC` [Example 164.0] as the molecule, how does the EC50 read?
A: Its EC50 is 0.84 nM.

Q: Which EC50 does the source give for `COCc1nnc(NS(=O)(=O)[C@@H](C)[C@H](OC)c2ncc(Cl)cn2)n1C1(c2cccnc2)CC1` [Example 140.0, (1R,2S)-1-(5-chloropyrimidin-2-yl)-1-methoxy-N-(5-(methoxymethyl)-4-(1-(pyridin-3-yl)cyclopropyl)-4H-1,2,4-triazol-3-yl)propane-2-sulfonamide] here?
A: Its EC50 is 29 nM.

Q: `COc1ncnc(OC)c1-n1c(CC2COC2)nnc1NS(=O)(=O)[C@@H](C)[C@H](C)c1ncc(Cl)cn1` [Example 33.0, (2S,3R)-3-(5-chloro-2-pyrimidinyl)-N-(4-(4,6-dimethoxy-5-pyrimidinyl)-5-(3-oxetanylmethyl)-4H-1,2,4-triazol-3-yl)-2-butanesulfonamide] was tested. Which EC50 did it give?
A: Its EC50 is 210 nM.

Q: Which EC50 does the source give for `COCc1nnc(NS(=O)(=O)[C@@H](C)[C@H](C)c2ncc(OC)cn2)n1-c1c(OC)cccc1OC` [Example 130.0] here?
A: Its EC50 is 12 nM.

Q: How did the EC50 turn out when `COc1cccc(OC)c1-n1c(CCN2CCN(C)CC2)nnc1NS(=O)(=O)[C@@H](C)[C@H](OC)c1ncc(C)cn1` [Example 53.0] was run?
A: The EC50 was 54 nM.

Q: `COCCc1nnc(NS(=O)(=O)[C@@H](C)[C@H](OC)c2ncc(Cl)cn2)n1C(COC)COC` [Example 146.0] was tested. Which EC50 did it give?
A: Its EC50 is 250 nM.

Q: Which EC50 does the source give for `COc1ncnc(OC)c1-n1c(CC2CCCCC2)nnc1NS(=O)(=O)[C@@H](C)[C@H](OC)c1ncc(Cl)cn1` [Example 29.0, (1R,2S)-1-(5-chloro-2-pyrimidinyl)-N-(5-(cyclohexylmethyl)-4-(4,6-dimethoxy-5-pyrimidinyl)-4H-1,2,4-triazol-3-yl)-1-methoxy-2-propanesulfonamide] here?
A: Its EC50 is 21 nM.

Q: With `COc1cccc(OC)c1-n1c(NS(=O)(=O)[C@@H](C)[C@H](C)c2ncc(Cl)cn2)nnc1C(F)(F)c1ccccn1` [Example 136.0] as the molecule, how does the EC50 read?
A: The EC50 was 35 nM.

Q: How did the EC50 turn out when `COCc1nnc(NS(=O)(=O)[C@@H](C)[C@H](C)c2ncc(Cl)cn2)n1-c1c(OC)ncnc1OC` [Example 11.0, (2S,3R)-3-(5-chloro-2-pyrimidinyl)-N-(4-(4,6-dimethoxy-5-pyrimidinyl)-5-(methoxymethyl)-4H-1,2,4-triazol-3-yl)-2-butanesulfonamide] was run?
A: Its EC50 is 88 nM.

Q: For `COc1cccc(OC)c1-n1c(CCc2ccco2)nnc1NS(=O)(=O)[C@@H](C)[C@H](C)c1ncc(Cl)cn1` [Example 36.0, (2S,3R)-3-(5-chloro-2-pyrimidinyl)-N-(4-(2,6-dimethoxyphenyl)-5-(2-(2-furanyl)ethyl)-4H-1,2,4-triazol-3-yl)-2-butanesulfonamide], which EC50 is on record?
A: The EC50 was 2.9 nM.

Q: For `COc1cccc(OC)c1-n1c(COc2ccccc2)nnc1NS(=O)(=O)[C@@H](C)[C@H](OC)c1ncc(C)cn1` [Example 48.0, (1R,2S)—N-(4-(2,6-Dimethoxyphenyl)-5-(phenoxymethyl)-4H-1,2,4-triazol-3-yl)-1-methoxy-1-(5-methyl-2-pyrimidinyl)-2-propanesulfonamide], which EC50 is on record?
A: Its EC50 is 440 nM.

Q: Which EC50 does the source give for `CCC(CC)n1c(COC)nnc1NS(=O)(=O)[C@@H](C)[C@H](OC)c1ncc(Cl)cn1` [Example 147.0] here?
A: The EC50 was 170 nM.

Q: `COc1ncnc(OC)c1-n1c(CC(C)C)nnc1NS(=O)(=O)[C@@H](C)[C@H](OC)c1ncc(Cl)cn1` [Example 31.0, (1R,2S)-1-(5-chloro-2-pyrimidinyl)-N-(4-(4,6-dimethoxy-5-pyrimidinyl)-5-(2-methylpropyl)-4H-1,2,4-triazol-3-yl)-1-methoxy-2-propanesulfonamide] was tested. Which EC50 did it give?
A: Its EC50 is 7.6 nM.

Q: For `COCc1nnc(NS(=O)(=O)[C@@H](C)[C@H](OC)c2ncc(Cl)cn2)n1C1CCOCC1` [Example 63.0, (1R, 2S)-1-(5-chloropyrimidin-2-yl)-1-methoxy-N-(5-(methoxymethyl)-4-(tetrahydro-2H-pyran-4-yl)-4H-1,2,4-triazol-3-yl)propane-2-sulfonamide], which EC50 is on record?
A: The EC50 was 10 nM.

Q: Which EC50 does the source give for `COCc1nnc(NS(=O)(=O)[C@@H](C)[C@H](OC)c2ncc(Cl)cn2)n1-c1ccccc1OC` [Example 132.0] here?
A: The EC50 was 11 nM.

Q: For `COc1cccc(OC)c1-n1c(Cc2ccccc2)nnc1NS(=O)(=O)[C@@H](C)[C@H](OC)c1ncc(C)cn1` [Example 54.0], which EC50 is on record?
A: The EC50 was 300 nM.

Q: For `COc1cccc(OC)c1-n1c(CN2CCCC2=O)nnc1NS(=O)(=O)[C@@H](C)[C@H](C)c1ncc(Cl)cn1` [Example 41.0, (2S,3R)-3-(5-chloro-2-pyrimidinyl)-N-(4-(2,6-dimethoxyphenyl)-5-((2-oxo-1-pyrrolidinyl)methyl)-4H-1,2,4-triazol-3-yl)-2-butanesulfonamide], which EC50 is on record?
A: The EC50 was 320 nM.

Q: How did the EC50 turn out when `COc1cccc(OC)c1-n1c(Cc2cc[nH]n2)nnc1NS(=O)(=O)[C@@H](C)[C@H](C)c1ncc(Cl)cn1` [Example 39.0, (2S,3R)-3-(5-chloro-2-pyrimidinyl)-N-(4-(2,6-dimethoxyphenyl)-5-(1H-pyrazol-3-ylmethyl)-4H-1,2,4-triazol-3-yl)-2-butanesulfonamide] was run?
A: The EC50 was 5.8 nM.

Same assay, conditions: read-out: Activity hAPJ SPA EC50 IP

Q: How did the EC50 turn out when `COCc1nnc(NS(=O)(=O)[C@@H](C)[C@H](OC)c2ncc(C)cn2)n1-c1c(OC)cccc1OC` [Example 60.0, (1R,2S)-N-(4-(2.6-dimethoxyphenyl)-5-(methoxymethyl)-4H-1.2,4-triazol-3-yl)-1-methoxy-1-(5-methylpyrimidin-2-yl)propane-2-sulfonamide] was run?
A: The EC50 was 22 nM.

Q: Which EC50 does the source give for `COCc1nnc(NS(=O)(=O)[C@@H](C)[C@H](OC)c2ncc(Cl)cn2)n1-c1c(OC)cccc1OC` [Example 12.0, (1R,2S)-1-(5-chloro-2-pyrimidinyl)-N-(4-(2,6-dimethoxyphenyl)-5-(methoxymethyl)-4H-1,2,4-triazol-3-yl)-1-methoxy-2-propanesulfonamide] here?
A: The EC50 was 4.8 nM.

Q: How did the EC50 turn out when `COCc1nnc(NS(=O)(=O)[C@@H](C)[C@@H](OC(C)C)c2ncc(C)cn2)n1-c1c(OC)cccc1OC` [Example 62.0, (1S,2S)-N-(4-(2,6-dimethoxyphenyl)-5-(methoxymethyl)-4H-1,2,4-triazol-3-yl)-1-isopropoxy-1-(5-methylpyrimidin-2-yl)propane-2-sulfonamide] was run?
A: The EC50 was 1000 nM.
